# Reference: US20200077655A1, “Use of an Acyclic Picolinamide Compound as a Fungicide for Control of Phytopathogenic Fungi in Orchard, Vineyard and Plantation Crops” (Dow AgroSciences LLC, priority 2017, published 2020)
# Legend:
# Format in all cases: in vivo
# [1] = system: Tranzschelia discolor (TRANDI); experiment: Field assessment of rust in almond; details: untreated 61.3
# Excerpt: A fungicidal treatment containing Compound I, applied in an SC formulation (MSO-buit in) and tank mixed with an adjuvant (Adsee C80W 80%), was sprayed on almond trees (PRNDU, Butte variety) with 2 applications at growth stages BBCH67-69 and BBCH69-72 at rates of 60, 120, 150, and 180 g ai/ha. The experimental plots were run under natural infestation. The treatments were part of an experimental trial designed as a randomized complete block (RCB) with three replications and a plot of approximately 16×22 ft. Compound I was applied at water volume of 100 gal/acre, using a motorized backpack sprayer.
# Percent leaf incidence (calculated from number of visual diseased leaves per 50 leaves per one tree) was assessed and recorded at 105 days after application A (105 DAAA).
# [2] = system: Botrytis cinerea (BOTRCI); experiment: Field assessment of gray mold on grapevine
# Excerpt: On grapevine: A fungicidal treatment containing Compound I, applied in a 5% EC formulation and tank mixed with an adjuvant (Trycol, 50% w/w at 0.2% v/v), was sprayed only on the bunch portion of grape plants (VITVI, Pinot grey variety) at rates of 50, 150 and 200 grams of active ingredient per hectare (g ai/ha). The trial was based on two applications 28 days apart in open field conditions with disease inoculation 3 days after the last application (plant growth stage B83). The treatment was part of an experimental trial designed as a randomized complete block with four replications and a plot of approximately 2.5×7.0 m. Formulations of compound I were applied at water volume of 500 L/ha (bunches only), using a backpack plot sprayer ([…], Solo 433; Airatom nozzle). Disease severity was recorded as a percentage of incidence and infection of damaged bunches on a random sample of 100 bunches per plot. Gray mold infection was assessed three times, the first at 22 days after the last application (22DAAB), the second and third at 28DAAB and 36DAAB. Area under the disease progress curve (AUDPC) was calculated for each plot using the sets of recorded severity data. Relative AUDPC (% control based on AUDPC) was calculated as percent of the nontreated control.
# Capnodium sp. (CAPDSP) = experiment: Field assessment of sooty mold on pears
# Excerpt: A 10% SC formulation of Compound I was tank mixed with three different adjuvants: Agnique BP420 (50% w/w at 0.3% v/v), Ethomeen T18H (50% w/w at 0.15% v/v) and Trycol (50% w/w at 0.3% v/v). Formulations of compound I were sprayed on the plant canopy of pear trees (Highland variety) of approximately 2.5 m in height at rates of 100, 150 and 200 grams of active ingredient per hectare (g ai/ha). The trial was based on six foliar applications during the growing season at approximately 12 day intervals with natural pear scab and sooty mold infections in open field conditions. The treatment was part of an experimental trial designed as a randomized complete block with four replications and a plot of approximately 3×5 m. Formulations of compound I were applied with a SOLO mistblower sprayer at a water volume of 1500 L/ha.
# For VENTPI evaluation, percent control was calculated based on incidence and severity in fruit assessment vs the nontreated control on a random selection of 50 fruits per plot. […] Percent control for both diseases was calculated at 11DAAE, 7DAAF and 15DAAF.
# [3] = system: Botrytis cinerea (BOTRCI); experiment: Field assessment of gray mold on strawberry
# Excerpt: On strawberry: A fungicidal treatment containing Compound I, applied in a 5% EC formulation and tank mixed with an adjuvant (Trycol, 50% w/w at 0.2% v/v), was sprayed on strawberry plants (FRAAN, Candonga variety) at rates of 50, 150 and 200 grams of active ingredient per hectare (g ai/ha). The trial was based on four broadcast applications during the growing season at approximately 10 day intervals with grey mold inoculation after the last application (plant growth stage B85). The treatment was part of an experimental trial designed as a randomized complete block with four replications and a plot size of approximately 2.0×5.0 m. Formulations of compound I were applied at water volume of 800 L/ha, using a backpack plot sprayer (BKPCKENG, solo 433; HCSOLID—Albutz ATR80 Yellow nozzle) and pressurized at 300 kPa.
# Disease severity was recorded as a percentage of fruit incidence of damaged fruits on a random sample of 100 fruits per plot. Gray mold infection was assessed twice at 10 days after the third application (10DAAC) and 10DAAD. Area under the disease progress curve (AUDPC) was calculated for each plot using the sets of recorded incidence data. Relative AUDPC (% control based on AUDPC) was calculated as percent of the nontreated control.
# [4] = system: Stigmina carpophila (STIGCA); experiment: Field assessment of two trials for shot hole in almond (AUDPC); details: almond leaf incidence
# Excerpt: A fungicidal treatment containing Compound I, applied in an SC formulation (MSO built-in) and tank mixed with an adjuvant (Agnique BP-420, 50% w/w at 0.2% v/v or Adsee C80W 80%), was sprayed on almond trees (PRNDU, Winters or Carmel varieties) at growth stage BBCH71 and 72 at rates of 60, 120, 150, and 180 g ai/ha in two trials. The experimental plots were run with natural infestation. The treatments were part of experimental trials designed as a randomized complete block (RCB) with three replications and a plot of approximately 14×20 ft, both trials. Compound I was applied at water volume of 100 gal/acre, using a Mistblower sprayer (Orifice nozzle 0.125 setting), both trials.
# Percent Leaf incidence (calculated from the number of visual diseased leaves per 30 (Winters) or 50 (Carmel) leaves per tree on whole plot) was assessed three or four times during the trial. Area under the disease progress curve (AUDPC) was calculated for each plot using the sets of recorded leaf incidence data. Relative percent control was calculated from the AUDPC as percent of the untreated control using Abbotts.
# [5] = 120 g ai/ha, Adsee C80W, 300 g ai/ha
smiles,measurement,setting,value
"COc1ccnc(C(=O)N[C@@H](C)C(=O)O[C@@H](C)C(c2ccc(F)cc2)c2ccc(F)cc2)c1OC(C)=O [Compound I, (S)-1,1-bis(4-fluorophenyl)propan-2-yl (3-acetoxy-4-methoxypicolinoyl)-L-alaninate]",Percent Visual Leaf Incidence of TRANDI 89 DAAB,"[1]; 60 g ai/ha, MSO, 120 g ai/ha",13.3%
same,Percent Visual Leaf Incidence of TRANDI 89 DAAB,[1]; [5],11.3%
same,Percent Visual Leaf Incidence of TRANDI 89 DAAB,"[1]; 120 g ai/ha, MSO, 240 g ai/ha",9.3%
same,Percent Visual Leaf Incidence of TRANDI 89 DAAB,"[1]; 150 g ai/ha, MSO, 300 g ai/ha",6.0%
same,Percent Visual Leaf Incidence of TRANDI 89 DAAB,"[1]; 180 g ai/ha, MSO, 360 g ai/ha",6.0%
same,Percent control (AUDPC) from fruit infection assessments,[2]; 50 g ai/ha,B (51-75)
same,Percent control (AUDPC) from fruit infection assessments,[2]; 150 g ai/ha,A (76-100)
same,Percent control (AUDPC) from fruit infection assessments,[2]; 200 g ai/ha,A (76-100)
same,"Percent control CAPDSP, incidence in leaf assessment","Capnodium sp. (CAPDSP); 100 g ai/ha, adjuvant Agnique BP420 (first such line, r11), 15 days after final application",A (76-100)
same,"Percent control CAPDSP, incidence in leaf assessment","Capnodium sp. (CAPDSP); 100 g ai/ha, adjuvant Agnique BP420 (second such line, r13), 15 days after final application",A (76-100)
same,"Percent control CAPDSP, incidence in leaf assessment","Capnodium sp. (CAPDSP); 100 g ai/ha, adjuvant ETHOMEEN, 15 days after final application",A (76-100)
same,"Percent control CAPDSP, incidence in leaf assessment","Capnodium sp. (CAPDSP); 100 g ai/ha, adjuvant None, 15 days after final application",A (76-100)
same,"Percent control CAPDSP, incidence in leaf assessment","Capnodium sp. (CAPDSP); 100 g ai/ha, adjuvant Trycol, 15 days after final application",A (76-100)
same,"Percent control CAPDSP, incidence in leaf assessment","Capnodium sp. (CAPDSP); 200 g ai/ha, adjuvant Agnique BP420, 15 days after final application",A (76-100)
same,Percent control (AUDPC) from fruit infection assessments,[3]; 50 g ai/ha,B (51-75)
same,Percent control (AUDPC) from fruit infection assessments,[3]; 150 g ai/ha,A (76-100)
same,Percent control (AUDPC) from fruit infection assessments,[3]; 200 g ai/ha,A (76-100)
same,Calculated Percent Control (AUDPC) of STIGCA,"[4]; 60 g ai/ha, Agnique BP420, 240 mL/ha",45.2%
same,Calculated Percent Control (AUDPC) of STIGCA,"[4]; 60 g ai/ha, MSO, 120 g ai/ha",47.9%
same,Calculated Percent Control (AUDPC) of STIGCA,[4]; [5],44.6%
same,Calculated Percent Control (AUDPC) of STIGCA,"[4]; 120 g ai/ha, Agnique BP420, 480 mL/ha",49%
same,Calculated Percent Control (AUDPC) of STIGCA,"[4]; 120 g ai/ha, MSO, 240 g ai/ha",48.3%
same,Calculated Percent Control (AUDPC) of STIGCA,"[4]; 150 g ai/ha, Agnique BP420, 600 mL/ha",41.1%
same,Calculated Percent Control (AUDPC) of STIGCA,"[4]; 150 g ai/ha, MSO, 300 g ai/ha",45.1%
same,Calculated Percent Control (AUDPC) of STIGCA,"[4]; 180 g ai/ha, Agnique BP420, 720 mL/ha",30.1%
same,Calculated Percent Control (AUDPC) of STIGCA,"[4]; 180 g ai/ha, MSO, 360 g ai/ha",49.0%
